# Assay results published in patent US20200400567A1, “FUSION POLYPEPTIDE” (PEKING UNIVERSITY, priority 2017, published 2020).
# Experiments:
# Format in all cases: cell-based
# human ADRA2A receptor [1] = test system: human ADRA2A receptor
# Description: The perfusion system was set on a microscope, and including a solution-introduced system, an imaging cell, and a suction pump. During the perfusion process, the imaging cell was placed above the objective lens of the inverted microscope, and the slide with cultured cells was placed in the cell. The perfusion experiments of different drugs were performed by controlling the switches of the different pipes of the solution-introduced system. The perfusion speed was set to one drop or so per second. In order to ensure the stability of the focal plane, the liquid level was kept constant at all times, and the flow rate of each solution was adjusted accordingly. The aspiration speed was adjusted to maintain the liquid level in the cell over the slide.
# The region of interest (ROI) and background area were selected manually prior to the perfusion experiment. The exposure time was set to less than 50 ms and the acquisition frequency was 5 seconds. The solution used for the perfusion was a physiological solution 4k (pH 7.3-7.4), which was used to formulate the drug to the desired concentration. The running time of the program was set to no more than 5 min. After using 4k to balance and stabilize the cells for about 60-90 s, the cells were perfused with drug for 60 s, and then washed with 4k. The excitation light for green fluorescent protein was 488 nm, and for red fluorescent protein was 568 nm. The laser intensity was adjusted according to the working state of the laser and the expression level of the cells.
# After the end of the program, the time-fluorescence intensity data sheet was exported. The background was subtracted from the ROI to get the corresponding fluorescence value Ft, and the average value of the fluorescence value before adding the drug was used as the starting fluorescence F0 to calculate
# The detection of the response of the GRAB sensor to the ligand (ΔF/F0) was performed by drug perfusion. The cells were maintained in a standard physiological solution, and the formula thereof is: […]
# Fluorescence imaging data was processed using ImageJ software. For the fluorescence performance of GRAB sensors in HEK293T cells and neurons, the entire cell body was selected as the data processing region. The change in the fluorescence signal was usually indicated by its relative intensity change. The background area without the expression of the sensor was first subtracted from the fluorescence signal, so as to obtain the true expression intensity of the fluorescent protein.
# human ADRA2A receptor [2] = assay: Response kinetics of GRAB-NE2.2 by photolysis of NPEC-caged-NE; details: GRAB-NE2.2, 10 μM Yohimbine
# Description: 100 μM NPEC-NE was prepared in DMSO. The photo-uncaging experiment was performed on a Nikon laser scanning confocal microscope. The light stimulation was 80% of the 405 nm laser for 76 ms, and the stimulation area was 2×2 pixel rectangle (1 pixel=0.62 μm).
# By caging neurotransmitters, neurotransmitters can be quickly activated and released in a certain area, and the signal of the sensor was fast scanned by a microscope to obtain the time constant for the change in fluorescence intensity after the sensor binds to the ligand. The experiment was performed in HEK293T cells using the neurotransmitter NPEC caged NE (i.e., NPEC-NE) (FIG. 29a), 405 nm laser for activating NPEC-caged NE, and GRAB-NE2.2.
# human ADRA2A receptor [3] = assay: GRAB-NE2.1 in primary cultured rat cardiomyocytes, drug perfusion; details: GRAB-NE2.1 in cardiomyocytes, 1 μM Yohimbine
# Excerpt: The GRAB-NE2.1 sensor was transfected into primary cultured rat cardiomyocytes by liposomes, and the optical signal changes for the ligand binding and affinity for ligand were detected by drug perfusion.
# human ADRA2A receptor [4] = assay: GRAB-NE2.1 in cultured rat cortical neurons, drug perfusion; details: GRAB-NE2.1 in neurons
# Description: Newborn Sprague-Dawley rats were used for the primary culture of rat neurons. After the skin was washed with alcohol, the head of newborn rat was dissected with surgical instruments, and the vascular membrane on the surface of the cortex was carefully removed after removing the brain. The cortical tissue was cut into pieces and placed in a 0.25% trypsin solution, and digested for 10 minutes in an incubator at 37° C. The digestion was terminated with a DMEM medium containing 5% FBS, and the cells were further isolated by slowly pipetting up and down ten times with a pipette. After standing for 5 minutes, the pellet containing the tissue debris was discarded and the upper layer solution was collected and centrifuged at 1000 rpm for 5 minutes in a centrifuge. Thereafter, the supernatant was discarded and the neurons were resuspended with the Neurobasal+B27 medium used for culturing the neurons. The density was calculated using a cell counting chamber. After that, the cells were diluted at a density of 0.5-1×10^6 cells/ml and plated on the slides coated with poly-lysine (Sigma). Primary neurons were cultured in the Neurobasal+B27 medium, and a half of the medium was exchanged every two days. […]
# The optical signal changes of neurons expressing neurotransmitter sensors were detected by perfusion with a neurotransmitter solution.
compound,measurement,setting,value
COC(=O)[C@@H]1[C@H]2C[C@H]3c4[nH]c5ccccc5c4CCN3C[C@@H]2CC[C@@H]1O [Yohimbine],effect of blocker on NE concentration-dependent changes,"human ADRA2A receptor [1]; GRAB-NE2.0, 10 nM to 100 μM NE, 1 μM Yohimbine",completely inhibited
same,effect of blocker on ligand-induced NE sensor signal changes,"human ADRA2A receptor [1]; GRAB-NE2.0, Yohimbine 2 μM",can inhibit
same,effect of blocker on NE-induced fluorescence signal,"human ADRA2A receptor [1]; GRAB-NE2.1, Yohimbine 2 μM",can inhibit
same,effect of blocker on photolysis-induced fluorescence change,human ADRA2A receptor [2],inhibited
same,effect of blocker on NE reaction,human ADRA2A receptor [3],can inhibit
same,effect of blocker on ligand-induced optical signal changes,human ADRA2A receptor [4],can inhibit
